Results taken from US20220211594A1, “TOPICAL COMPOSITIONS” (DSM IP ASSETS B.V., priority 2019, published 2022).

Key:
C. albicans = experiment: Preservation challenge test of inoculated O/W emulsion (ISO 11930), C. albicans; assay type: cell-based, Candida albicans; details: PTT: 0.4 wt.-%, HG & EHG: 0.6 wt.-%
Protocol: (§1) The evaluation of the preservation of a cosmetic formulation is based on inoculation of the formulation as outlined in table 1 with calibrated inocula (prepared from relevant strains of micro-organisms). Therefore, to each formulation 0.2 ml of calibrated inoculum is added to obtain between 1×10^4 cfu/ml and 1×10^7 cfu/ml or g for bacteria, and between 1×10^2 cfu/ml and 1×10^6 cfu/ml or g for C. albicans and A. brasiliensis in the formulation (final concentration), which is mixed thoroughly into the formulation to ensure a homogeneous distribution of the inoculum. Then the respective containers containing the inoculated formulations are stored @ 22.5±2.5° C. At each specified sampling interval (initial (T0), 7 days (T7) and 28 days (T28)) 1 g of the inoculated formulation is taken and a dilution prepared to perform the enumeration of surviving micro-organisms. Then, for each time and each strain/strain mixture, the average log value is calculated which is represented in tables 2-6. (Procedure: see ISO 11930, chapter 5.2.-5.6.3.4. (page 3-13))

A. brasiliensis = experiment: Preservation challenge test of inoculated O/W emulsion (ISO 11930), A. brasiliensis; assay type: cell-based, Aspergillus brasiliensis
Protocol: as §1

[1] = test system: Bacterial cocktail (E. Coli, P. aeruginosa, S. aureus); experiment: Preservation challenge test of inoculated O/W emulsion (ISO 11930), bacterial cocktail; assay type: cell-based; details: PTT: 0.3 wt -%, HG & EHG: 0.4 wt.-%
Protocol: as §1

[2] = PTT: 0.1 wt.-%, HG & EHG: 0.9 wt.-%, time 0 days
[3] = PTT: 0.1 wt.-%, HG & EHG: 0.9 wt.-%, time 7 days
[4] = PTT: 0.1 wt.-%, HG & EHG: 0.9 wt.-%, time 28 days
[5] = PTT: 0.3 wt.-%, HG & EHG: 0.4 wt.-%, time 0 days
[6] = PTT: 0.3 wt.-%, HG & EHG: 0.4 wt.-%, time 7 days
[7] = PTT: 0.3 wt.-%, HG & EHG: 0.4 wt.-%, time 28 days
[8] = PTT: 0.4 wt.-%, HG & EHG: 0.6 wt.-%, time 0 days
[9] = PTT: 0.4 wt.-%, HG & EHG: 0.6 wt.-%, time 7 days
[10] = PTT: 0.4 wt.-%, HG & EHG: 0.6 wt.-%, time 28 days

Row | Compound | Average log [cfu/ml] (C. albicans; time 0 days) | Average log [cfu/ml] (C. albicans; time 7 days) | Average log [cfu/ml] (C. albicans; time 28 days) | Average log [cfu/ml] (A. brasiliensis; [2]) | Average log [cfu/ml] (A. brasiliensis; [3]) | Average log [cfu/ml] (A. brasiliensis; [4]) | Average log [cfu/ml] (A. brasiliensis; [5]) | Average log [cfu/ml] (A. brasiliensis; [6]) | Average log [cfu/ml] (A. brasiliensis; [7]) | Average log [cfu/ml] (A. brasiliensis; [8]) | Average log [cfu/ml] (A. brasiliensis; [9]) | Average log [cfu/ml] (A. brasiliensis; [10]) | Average log [cfu/ml] ([1]; time 0 days) | Average log [cfu/ml] ([1]; time 7 days) | Average log [cfu/ml] ([1]; time 28 days)
1 | CCCCC(CC)COCC(O)CO (stereo not drawn) [EHG, Ethylhexyl glycerine] | 3.2 log [cfu/ml] | 6.1 log [cfu/ml] | 6.0 log [cfu/ml] | 4.6 log [cfu/ml] | 4.2 log [cfu/ml] | 4.5 log [cfu/ml] | 4.6 log [cfu/ml] | 4.6 log [cfu/ml] | 4.6 log [cfu/ml] | 4.6 log [cfu/ml] | 4.4 log [cfu/ml] | 4.6 log [cfu/ml] | 5.3 log [cfu/ml] | 7.0 log [cfu/ml] | 6.5 log [cfu/ml]
2 | CCCCCCOCC(O)CO (stereo not drawn) [HG, 3-(hexyloxy)-1,2-propanediol] | 4.3 log [cfu/ml] | 3.6 log [cfu/ml] | 3.1 log [cfu/ml] | 4.2 log [cfu/ml] | 1.3 log [cfu/ml] | 0 log [cfu/ml] | 4.7 log [cfu/ml] | 3.7 log [cfu/ml] | 3.5 log [cfu/ml] | 4.3 log [cfu/ml] | 3.6 log [cfu/ml] | 3.1 log [cfu/ml] | 4.9 log [cfu/ml] | 5.7 log [cfu/ml] | 5.6 log [cfu/ml]
3 | CC(C)CCCC(C)CCCC(C)CCCC(C)(O)C(O)CO (stereo not drawn) [PTT, 3,7,11,15-tetramethyl-hexadecane-1,2,3-triol] | 3.0 log [cfu/ml] | 6.8 log [cfu/ml] | 7.1 log [cfu/ml] | 2.1 log [cfu/ml] | 3.6 log [cfu/ml] | 4.4 log [cfu/ml] | 6.3 log [cfu/ml] | 5.7 log [cfu/ml] | 5.8 log [cfu/ml] | 1.7 log [cfu/ml] | 3.5 log [cfu/ml] | 4.5 log [cfu/ml] | 6.5 log [cfu/ml] | 2 log [cfu/ml] | 2 log [cfu/ml]
